From patent publication US20250263370A1 (Tay Therapeutics Limited, priority 2022, published 2025)
“And” between values parts separate entries of the source, which are not always exact repeats. Equal values may be shown once.

Tested on: collagen-induced arthritis
Experiment: Collagen-induced arthritis (CIA) model in rats: body weight, paw volume, clinical scores, clinical observations; on Average detailed clinical score, left hind limb: key of the grades not given here; on Average detailed clinical score, right hind limb: key of the grades not given here; on Detailed Clinical Scores, left forelimb: key of the grades not given here; on Detailed Clinical Scores, left hind limb: key of the grades not given here; on Detailed Clinical Scores, right forelimb: key of the grades not given here; on Detailed Clinical Scores, right hind limb: key of the grades not given here; on Detailed Clinical Scores, score: key of the grades not given here; on Detailed Clinical Scores: left forelimb: key of the grades not given here; on Detailed Clinical Scores: left hind limb: key of the grades not given here; on Detailed Clinical Scores: right forelimb: key of the grades not given here; on Detailed Clinical Scores: right hind limb: key of the grades not given here; on Detailed Clinical Scores: score: key of the grades not given here; on Mean overall clinical score ± SD: key of the grades not given here; on overall clinical score: key of the grades not given here
Conditions: for Mean animal paw volume ± SD: group mean; for Animal paw volume percent change: individual animals; for Average detailed clinical score, left forelimb / Average detailed clinical score, left hind limb / Average detailed clinical score, right forelimb / Average detailed clinical score, right hind limb / Average detailed clinical score, score / Mean overall clinical score ± SD / Detailed Clinical Scores, left forelimb / Detailed Clinical Scores, left hind limb / Detailed Clinical Scores, right forelimb / Detailed Clinical Scores, right hind limb / Detailed Clinical Scores, score / Overall clinical score / Detailed Clinical Scores: left forelimb / Detailed Clinical Scores: left hind limb / Detailed Clinical Scores: right forelimb / Detailed Clinical Scores: right hind limb / Detailed Clinical Scores: score: CIA rats; for Detailed Clinical Scores, left forelimb / Detailed Clinical Scores, left hind limb / Detailed Clinical Scores, right forelimb / Detailed Clinical Scores, right hind limb / Detailed Clinical Scores, score / Detailed Clinical Scores: left forelimb / Detailed Clinical Scores: left hind limb / Detailed Clinical Scores: right forelimb / Detailed Clinical Scores: right hind limb / Detailed Clinical Scores: score: individual animals ID 1-8; for Overall clinical score: individual animals #1-8

SMILES: CNC(=O)c1cc(C(=O)NC2CC2)cn(Cc2ccccc2)c1=O [GSK620]
- Mean animal paw volume ± SD (Day 13, L paw): 1.38 mL
- Animal paw volume percent change (Day 13, L paw): 5.12% and 1.52% and 12.65% and −0.73% and 4.01% and 2.25% and 4.56% and 3.33%
- Mean animal paw volume ± SD (Day 13, R paw): 1.41 mL
- Animal paw volume percent change (Day 13, R paw): 9.84% and 3.07% and 10.98% and 14.65% and 3.66% and 3.02% and 6.04% and 3.75%
- Average detailed clinical score, left forelimb (Day 13): 0.00
- Average detailed clinical score, left hind limb (Day 13): 0.00
- Average detailed clinical score, right forelimb (Day 13): 0.00
- Average detailed clinical score, right hind limb (Day 13): 0.13
- Average detailed clinical score, score (Day 13): 0.13
- Mean overall clinical score ± SD (Day 13): 0 ± 0
- Detailed Clinical Scores, left forelimb (Day 13): 0
- Detailed Clinical Scores, left hind limb (Day 13): 0
- Detailed Clinical Scores, right forelimb (Day 13): 0
- Detailed Clinical Scores, right hind limb (Day 13): 0 (7×) and 1
- Detailed Clinical Scores, score (Day 13): 0 (7×) and 1
- Overall clinical score (Day 13): 0 (7×) and 1
- Mean animal paw volume ± SD (Day 14, L paw): 1.55 mL
- Animal paw volume percent change (Day 14, L paw): 21.65% and 34.98% and 13.44% and −0.37% and 4.01% and 4.87% and 31.18% and 27.78%
- Mean animal paw volume ± SD (Day 14, R paw): 1.67 mL
- Animal paw volume percent change (Day 14, R paw): 37.01% and 14.18% and 12.55% and 54.58% and 4.40% and 3.77% and 49.81% and 36.70%
- Average detailed clinical score, left forelimb (Day 14): 0.00
- Average detailed clinical score, left hind limb (Day 14): 0.88
- Average detailed clinical score, right forelimb (Day 14): 0.00
- Average detailed clinical score, right hind limb (Day 14): 1.13
- Average detailed clinical score, score (Day 14): 2.00
- Mean overall clinical score ± SD (Day 14): 2 ± 2
- Detailed Clinical Scores, left forelimb (Day 14): 0
- Detailed Clinical Scores, left hind limb (Day 14): 1 and 2 (3×) and 0 (4×)
- Detailed Clinical Scores, right forelimb (Day 14): 0
- Detailed Clinical Scores, right hind limb (Day 14): 2 (3×) and 0 (4×) and 3
- Detailed Clinical Scores, score (Day 14): 3 (2×) and 2 and 0 (3×) and 4 (2×)
- Overall clinical score (Day 14): 3 (2×) and 2 and 0 (3×) and 4 (2×)
- Mean animal paw volume ± SD (Day 15, L paw): 1.74 mL
- Animal paw volume percent change (Day 15, L paw): 60.24% and 53.99% and 9.49%
- Mean animal paw volume ± SD (Day 15, R paw): 1.86 mL
- Animal paw volume percent change (Day 15, R paw): 61.02% and 59.00% and 7.84%
- Average detailed clinical score, left forelimb (Day 15): 0.00
- Average detailed clinical score, left hind limb (Day 15): 1.63
- Average detailed clinical score, right forelimb (Day 15): 0.00
- Average detailed clinical score, right hind limb (Day 15): 2.00
- Average detailed clinical score, score (Day 15): 3.63
- Mean overall clinical score ± SD (Day 15): 4 ± 2
- Detailed Clinical Scores: left forelimb (Day 15): 0
- Detailed Clinical Scores: left hind limb (Day 15): 3 (3×) and 0 (2×) and 1 (2×) and 2
- Detailed Clinical Scores: right forelimb (Day 15): 0
- Detailed Clinical Scores: right hind limb (Day 15): 3 (3×) and 0 (2×) and 4 and 1 and 2
- Detailed Clinical Scores: score (Day 15): 6 (3×) and 0 and 4 (2×) and 1 and 2
- Overall clinical score (Day 15): 6 (3×) and 0 and 4 (2×) and 1 and 2
- Mean animal paw volume ± SD (Day 18, L paw): 2.48 mL
- Animal paw volume percent change (Day 18, L paw): 113.78% and 92.78% and 88.54%
- Mean animal paw volume ± SD (Day 18, R paw): 2.35 mL
- Animal paw volume percent change (Day 18, R paw): 105.91% and 87.36% and 88.63%
- Average detailed clinical score, left forelimb (Day 18): 0.00
- Average detailed clinical score, left hind limb (Day 18): 3.88
- Average detailed clinical score, right forelimb (Day 18): 0.00
- Average detailed clinical score, right hind limb (Day 18): 3.38
- Average detailed clinical score, score (Day 18): 7.25
- Mean overall clinical score ± SD (Day 18): 7 ± 1
- Detailed Clinical Scores: left forelimb (Day 18): 0
- Detailed Clinical Scores: left hind limb (Day 18): 4 (7×) and 3
- Detailed Clinical Scores: right forelimb (Day 18): 0
- Detailed Clinical Scores: right hind limb (Day 18): 4 (6×) and 0 and 3
- Detailed Clinical Scores: score (Day 18): 8 (6×) and 4 and 6
- Overall clinical score (Day 18): 8 (6×) and 4 and 6
- Mean animal paw volume ± SD (Day 19, L paw): 2.54 mL
- Animal paw volume percent change (Day 19, L paw): 112.99% and 92.78%
- Mean animal paw volume ± SD (Day 19, R paw): 2.36 mL
- Animal paw volume percent change (Day 19, R paw): 103.54% and 88.12%
- Average detailed clinical score, left forelimb (Day 19): 0.75
- Average detailed clinical score, left hind limb (Day 19): 3.63
- Average detailed clinical score, right forelimb (Day 19): 0.25
- Average detailed clinical score, right hind limb (Day 19): 3.00
- Average detailed clinical score, score (Day 19): 7.63
- Mean overall clinical score ± SD (Day 19): 8 ± 2
- Detailed Clinical Scores: left forelimb (Day 19): 1 (6×) and 0 (2×)
- Detailed Clinical Scores: left hind limb (Day 19): 4 (5×) and 3 (3×)
- Detailed Clinical Scores: right forelimb (Day 19): 0 (6×) and 1 (2×)
- Detailed Clinical Scores: right hind limb (Day 19): 4 (3×) and 3 (4×) and 0
- Detailed Clinical Scores: score (Day 19): 9 (2×) and 10 and 6 and 5 and 7 (2×) and 8
- Overall clinical score (Day 19): 9 (2×) and 10 and 6 and 5 and 7 (2×) and 8
- Mean animal paw volume ± SD (Day 21, L paw): 2.53 mL
- Animal paw volume percent change (Day 21, L paw): 112.99% and 90.49%
- Mean animal paw volume ± SD (Day 21, R paw): 2.35 mL
- Animal paw volume percent change (Day 21, R paw): 106.69% and 86.59%
- Average detailed clinical score, left forelimb (Day 21): 0.88
- Average detailed clinical score, left hind limb (Day 21): 3.63
- Average detailed clinical score, right forelimb (Day 21): 0.25
- Average detailed clinical score, right hind limb (Day 21): 3.13
- Average detailed clinical score, score (Day 21): 7.88
- Mean overall clinical score ± SD (Day 21): 8 ± 2
- Detailed Clinical Scores: left forelimb (Day 21): 1 (5×) and 2 and 0 (2×)
- Detailed Clinical Scores: left hind limb (Day 21): 4 (5×) and 3 (3×)
- Detailed Clinical Scores: right forelimb (Day 21): 0 (6×) and 1 (2×)
- Detailed Clinical Scores: right hind limb (Day 21): 4 (3×) and 3 (4×) and 1
- Detailed Clinical Scores: score (Day 21): 9 (2×) and 11 and 6 (2×) and 7 (2×) and 8
- Overall clinical score (Day 21): 9 (2×) and 11 and 6 (2×) and 7 (2×) and 8
